# Assay results published in patent publication US9790169B2, “IDO inhibitors” (BRISTOL-MYERS SQUIBB COMPANY, priority 2015, dated 2017).
# Molecular target: human IDO1 (Homo sapiens, UniProt P14902)
# Assay: Assessment of human IDO-1 inhibitory activity in HEK cells (human IDO1/HEK293 cells, kynurenine read-out with Ehrlich reagent, absorbance 490 nm)
# Format: cell-based
# Design: expressed in transfected cells
# Details: HEK Human IDO-1 cellular assay
# How it was run: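 Kynurenine output from stably IDO1-transfected HEK293 cells (10,000/well, phenol red-free RPMI, 10% FBS) after 20 h compound exposure at 37 °C. The reaction was stopped with 0.2% TCA and heated 30 min at 50 °C, then the supernatant was mixed with Ehrlich reagent and read at 490 nm. IC50 was set against DMSO and a 500 nM reference standard as 0 and 100% inhibition.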
# Chain of human IDO1 (P14902 whole entry): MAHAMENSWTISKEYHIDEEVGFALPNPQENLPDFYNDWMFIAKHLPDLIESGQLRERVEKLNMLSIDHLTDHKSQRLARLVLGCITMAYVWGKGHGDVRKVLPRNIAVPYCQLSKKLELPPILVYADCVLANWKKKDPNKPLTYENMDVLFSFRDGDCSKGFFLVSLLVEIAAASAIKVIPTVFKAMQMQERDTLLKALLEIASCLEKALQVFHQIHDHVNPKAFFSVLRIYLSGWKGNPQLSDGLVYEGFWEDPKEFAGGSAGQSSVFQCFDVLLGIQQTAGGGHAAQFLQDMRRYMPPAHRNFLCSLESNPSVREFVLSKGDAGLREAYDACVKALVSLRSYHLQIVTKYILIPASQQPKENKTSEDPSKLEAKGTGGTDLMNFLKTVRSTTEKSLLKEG
row,Compound,IC50 [nM]
1,"COCC(CC(=O)O)c1cc(F)c(N(CC(C)C)CC(C)C)c(NC(=O)Nc2ccc(C)cc2)c1 (single isomer, unassigned) [Example 1194, 3-(4-(Diisobutylamino)-3-fluoro-5-(3-(p-tolyl)ureido)phenyl)-4-methoxybutanoic acid]",< 50
2,"COCC(CC(=O)O)c1ccc(N(CC(C)C)C2CCCCC2)c(NC(=O)Nc2ccccc2F)c1 (single isomer, unassigned) [1125 E2]",< 5
3,"CCc1ccc(Nc2cc([C@H](CC)CC(=O)O)ccc2N(CC)C2CCOCC2)cc1 (single isomer, unassigned) [Example 517]",< 5
4,3-(4-(isobutyl(tetrahydro-2H-pyran-4-yl)amino)-3-(3-(4-phenoxyphenyl)ureido)phenyl)butanoic acid [Example 962],> 50
5,"CCOc1ncc(Nc2cc(C(CC)CC(=O)O)ccc2N(CC)C2CCCOC2)cn1 (single isomer, unassigned) [Example 69, 3-(3-((2-ethoxypyrimidin-5-yl)amino)-4-(ethyl(tetrahydro-2H-pyran-3-yl)amino)phenyl)pentanoic acid]",< 5
6,"COCC(CC(=O)OC)c1ccc(N(CC(C)C)C2CCC(OC)CC2)c(NC(=O)Nc2ccc(C)cc2)c1 (racemic) [Example 1005, (+/−)-Methyl 3-(4-(isobutyl((1R,4R)-4-methoxycyclohexyl)amino)-3-(3-(p-tolyl)ureido)phenyl)-4-methoxybutanoate]",> 50
7,"CCN(c1ccc(C(C)CC(=O)O)cc1NC(=O)Nc1ccccc1F)C1CCOCC1 (single isomer, unassigned) [Example 638, 3-(4-(ethyl(tetrahydro-2H-pyran-4-yl)amino)-3-(3-(2-fluorophenyl)ureido)phenyl) butanoic acid]",< 50
8,"COC(Cc1ccc(N(CC(C)C)C2CCCCC2)c(NC(=O)Nc2ccc(C#N)cc2F)c1)C(=O)O (racemic) [Example 1011, 3-(3-(3-(4-Cyano-2-fluorophenyl)ureido)-4-(cyclohexyl(isobutyl)amino)phenyl)-2-methoxypropanoic acid]",< 50
9,"COCC(CC(=O)O)c1cc(F)c(N(CC(C)C)CC(C)C)c(NC(=O)Cc2ccc(C)cc2)c1 (single isomer, unassigned) [Example 1177, 3-(4-(Diisobutylamino)-3-fluoro-5-(2-(p-tolyl)acetamido)phenyl)-4-methoxybutanoic acid]",< 50
10,"COCC(CC(=O)O)c1ccc(N(CC(C)C)CC(C)C)c(NC(=O)Nc2ccc(Cl)cc2F)c1 (single isomer, unassigned) [995-1]",< 5
11,"CCN(c1ccc([C@H](COC)CC(=O)O)cc1NC(=O)Nc1ccc(OC(F)F)cc1)C1CCOCC1 (single isomer, unassigned) [Example 436]",> 50
12,"CCOc1ncc(Nc2cc(C(CC)CC(=O)O)ccc2N2C[C@@H](C)O[C@@H](C)C2)cn1 (single isomer, unassigned) [Example 756]",> 50
13,CCC(CC(=O)O)c1cc(F)c(N(CC(C)C)CC(C)C)c(NC(=O)Cc2ccc(F)cc2F)c1 (racemic) [Example 1082],< 5
14,"CCN(c1ccc([C@H](COC)CC(=O)O)cc1NC(=O)Nc1ccc(Cl)cc1F)C1CCOCC1 (single isomer, unassigned) [Example 434]",< 50
15,"CCOc1ccc(NC(=O)Nc2cc(C(CC(=O)O)C3CC3)ccc2N(CC(C)C)C2CCOCC2)cc1 (racemic) [Example 1204, (+/−)-3-Cyclopropyl-3-(3-(3-(4-ethoxyphenyl)ureido)-4-(isobutyl(tetrahydro-2H-pyran-4-yl)amino)phenyl)propanoic acid]",< 50
16,"CCCN(c1ccc(C(CC)CC(=O)O)cc1NC(=O)Nc1ccc(OC)cc1F)C1CCOCC1 (racemic) [Example 609, 3-(3-(3-(2-Fluoro-4-methoxyphenyl)ureido)-4-(propyl(tetrahydro-2H-pyran-4-yl)amino)phenyl)pentanoic acid]",< 5
17,"CC[C@@H](CC(=O)O)c1ccc(N(CC)C2CCOCC2)c(NC(=O)Nc2ccc(OC)cc2F)c1 (single isomer, unassigned) [Example 493]",> 50
18,"CC[C@@H](CC(=O)O)c1ccc(N(CC)C2CCOCC2)c(Nc2ccc(OC)nc2)c1 (single isomer, unassigned) [Example 478]",< 5
19,"CC[C@@H](CC(=O)O)c1ccc(N(CC(C)C)CC(C)C)c(Nc2ccc3nc(C)sc3c2)c1 (single isomer, unassigned) [Example 9]",> 50
20,"COCC(CC(=O)O)c1ccc(N(CC(C)C)C2CCCCC2)c(NC(=O)Nc2ccc(C)cc2)c1 (single isomer, unassigned) [989-1]",< 5
21,"CCN(c1ccc(C(CC(=O)O)c2ccccc2)cc1NC(=O)Nc1ccc(Cl)cc1F)C1CCOCC1 (single isomer, unassigned) [Example 595, 3-(3-(3-(4-chloro-2-fluorophenyl)ureido)-4-(ethyl(tetrahydro-2H-pyran-4-yl)amino)phenyl)-3-phenylpropanoic acid]",> 50
22,"CCOc1ncc(Nc2cc([C@@H](CC)CC(=O)O)ccc2N(CC(C)(C)O)C2CCOCC2)cn1 (single isomer, unassigned) [Example 197]",> 50
23,"CCOc1ccc(NC(=O)Nc2cc(C(COC)CC(=O)O)ccc2N(CC(C)C)C2CCCCC2)cc1 (single isomer, unassigned) [Example 1235, 3-(4-(Cyclohexyl(isobutyl)amino)-3-(3-(4-ethoxyphenyl)ureido)phenyl)-4-methoxybutanoic acid]",< 5
24,"CC[C@@H](CC(=O)O)c1ccc(N(CC(C)(C)O)C2CCOCC2)c(Nc2ccc3c(c2)OC(F)(F)O3)c1 (single isomer, unassigned) [Example 199]",< 5
25,"COCC(CC(=O)O)c1ccc(N(CC2CC2)C2CCOCC2)c(NC(=O)Nc2ccc(Cl)cc2F)c1 (single isomer, unassigned) [Example 678, 3-(3-(3-(4-Chloro-2-fluorophenyl)ureido)-4-((cyclopropylmethyl)(tetrahydro-2H-pyran-4-yl)amino)phenyl)-4-methoxybutanoic acid]",> 50
26,"CCOc1ccc(NC(=O)Nc2cc(C(CC)CC(=O)O)c(F)cc2N(CC(C)C)C2CCCCC2)c(F)c1 (racemic) [Example 1116, (±)-3-(4-(Cyclohexyl(isobutyl)amino)-5-(3-(4-ethoxy-2-fluorophenyl)ureido)-2-fluorophenyl)pentanoic acid]",< 5
27,"CCc1ccc(Nc2cc(C(CC)CC(=O)O)ccc2N2CCOC[C@H]2C(C)C)cc1 (single isomer, unassigned) [Example 902]",< 5
28,"CCOc1ncc(Nc2cc(C(CC(=O)O)c3ccccc3)ccc2N(CC)C2CCOCC2)cn1 (single isomer, unassigned) [Example 578, 3-(3-((2-Ethoxypyrimidin-5-yl)amino)-4-(ethyl(tetrahydro-2H-pyran-4-yl)amino)phenyl)-3-phenylpropanoic acid]",< 50
29,"CCCN(c1ccc([C@@H](COC)CC(=O)O)cc1Nc1cnc(OCC2CC2)nc1)C1CCOCC1 (single isomer, unassigned) [Example 563]",< 50
30,"CCOc1ccc(NC(=O)Nc2cc(C(CC)CC(=O)O)c(F)cc2N(CC(C)C)CC(C)C)cc1 (single isomer, unassigned) [Example 1132, 3-(4-(Diisobutylamino)-5-(3-(4-ethoxyphenyl)ureido)-2-fluorophenyl)pentanoic acid]",< 5
